Results reported in patent publication US6887896B1, “7-[(7-Alkoxy)-chrom-3-en-6-yl]-heptatrienoic acid and 7-[(3-alkoxy)-5,6-dihydronaphthalen-2-yl]-heptatrienoic acid derivatives having serum glucose reducing activity” (Allergan, Inc., priority 2003, dated 2005).

How the values were obtained:
[1] = molecular target: T1, RXRγ (UniProt P28705); assay: ligand binding assay, RXRγ; settings: for Kd: Table 9 (Formula F), read-out: RXR γ Kd
T1 sequence (P28705 1-463): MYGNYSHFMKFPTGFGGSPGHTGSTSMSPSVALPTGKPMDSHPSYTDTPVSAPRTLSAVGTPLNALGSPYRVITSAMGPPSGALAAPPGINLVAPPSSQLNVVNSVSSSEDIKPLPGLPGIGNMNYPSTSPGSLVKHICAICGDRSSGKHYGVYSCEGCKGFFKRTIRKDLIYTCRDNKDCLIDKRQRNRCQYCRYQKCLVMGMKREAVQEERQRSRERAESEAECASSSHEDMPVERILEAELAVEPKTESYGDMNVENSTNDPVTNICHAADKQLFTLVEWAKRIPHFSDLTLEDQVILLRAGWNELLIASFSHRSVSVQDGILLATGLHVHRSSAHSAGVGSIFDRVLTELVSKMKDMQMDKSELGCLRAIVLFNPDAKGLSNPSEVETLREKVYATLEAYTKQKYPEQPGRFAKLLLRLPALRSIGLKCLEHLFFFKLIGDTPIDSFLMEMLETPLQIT
Text: (§1) Specifically, one such assay is a chimeric receptor transactivation assay which tests for agonist-like activity in the R RAPE and RAR7 receptor subtypes, and which is based on work published by Feigner, P. L. and Holm, M (1989) Focus, 112 is described in detail in U.S. Pat. No. 5,455,265. The specification of U.S. Pat. No. 5,455,265 is hereby expressly incorporated by reference. A holoreceptor transactivation assay and a ligand binding assay which measure the antagonist/agonist like activity of the compounds of the invention, or their ability to bind to the several retinoid receptor subtypes, respectively, are described in published PCT Application No. WO WO93/11755 (particularly on pages 30-33 and 37-41) published on Jun. 24, 1993, the specification of which is also incorporated herein by reference. A detailed experimental procedure for holoreceptor transactivations has been described by Heyman et al. Cell 68, 397-406, (1992); Allegretto et al. J. Biol. Chem. 268, 26625-26633, and Mangelsdorf et al. The Retinoids: Biology, Chemistry and Medicine, pp 319-349, Raven Press Ltd., New York, which are expressly incorporated herein by reference. The results obtained in this assay are expressed in EC50 numbers, as they are also in the chimeric receptor transactivation assay. The results of the ligand binding assay are expressed in Ki numbers. (See Cheng et al. Biochemical Pharmacology Vol. 22 pp 3099-3108, expressly incorporated herein by reference.)
(§2) Generally speaking, in the tables disclosing the results of transactivation and binding assays the numbers in parentheses indicate efficacy as a percentage compared to the standard compound, (2E,4E,1′S,2′S)-3-methyl-5-[2′-methyl-2′-(5,5,8,8-tetramethyl-5,6,7,8-tetrahydro-naphthalen-2-yl)cyclopropyl]-penta-2,4-dienoic acid and the other numbers indicate the measured EC50 and K; in nanomolar concentration.

[2] = molecular target: T2, RARβ (Homo sapiens, UniProt P10826); assay: chimeric receptor transactivation assay, RARβ; format: cell-based; settings: for EC50: chimeric receptor transactivation, read-out: RAR Trans. EC50 β; for Emax: percentage compared to the standard compound, read-out: RAR Trans. efficacy (number in parentheses) β
T2 sequence (P10826 183-417 limits assumed): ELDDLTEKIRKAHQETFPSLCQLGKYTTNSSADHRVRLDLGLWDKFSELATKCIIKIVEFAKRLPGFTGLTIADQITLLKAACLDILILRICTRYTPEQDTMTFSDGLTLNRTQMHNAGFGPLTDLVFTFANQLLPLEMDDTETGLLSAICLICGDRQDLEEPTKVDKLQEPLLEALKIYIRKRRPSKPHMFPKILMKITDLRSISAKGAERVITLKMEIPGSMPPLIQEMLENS
Text: as §1
(§3) Efficacy in a transactivation assay is expressed as a percentage of the maximum potency attained by the compound compared to a standard which, in this case, is the compound named (2E,4E,1′S,2′S)-3-methyl-5-[2′-methyl-2′-(5,5,8,8-tetramethyl-5,6,7,8-tetrahydro-naphthalen-2-yl)-cyclopropyl]-penta-2,4-dienoic acid. This standard compound is described in U.S. Pat. No. 6,114,533.
(§4) The specification of this application for patent is organized in several sections in accordance with structural Formulas A through F each of which discloses a group of preferred compounds within the scope of the invention. Tables that disclose the activity of certain exemplary compounds of the invention in the above-described RXR receptor transactivation and binding assays are found in the corresponding sections. […] The transactivation data pertaining to the activation of RXR receptors were obtained in the holoreceptor assay.
as §2

[3] = molecular target: T3, RXRβ (UniProt P28704); assay: holoreceptor transactivation assay, RXRβ; format: cell-based; settings: for EC50: holoreceptor transactivation, read-out: RXR Trans. EC50 β; for RXR Trans. efficacy (number in parentheses) β: percentage compared to the standard compound
T3 sequence (P28704 1-520): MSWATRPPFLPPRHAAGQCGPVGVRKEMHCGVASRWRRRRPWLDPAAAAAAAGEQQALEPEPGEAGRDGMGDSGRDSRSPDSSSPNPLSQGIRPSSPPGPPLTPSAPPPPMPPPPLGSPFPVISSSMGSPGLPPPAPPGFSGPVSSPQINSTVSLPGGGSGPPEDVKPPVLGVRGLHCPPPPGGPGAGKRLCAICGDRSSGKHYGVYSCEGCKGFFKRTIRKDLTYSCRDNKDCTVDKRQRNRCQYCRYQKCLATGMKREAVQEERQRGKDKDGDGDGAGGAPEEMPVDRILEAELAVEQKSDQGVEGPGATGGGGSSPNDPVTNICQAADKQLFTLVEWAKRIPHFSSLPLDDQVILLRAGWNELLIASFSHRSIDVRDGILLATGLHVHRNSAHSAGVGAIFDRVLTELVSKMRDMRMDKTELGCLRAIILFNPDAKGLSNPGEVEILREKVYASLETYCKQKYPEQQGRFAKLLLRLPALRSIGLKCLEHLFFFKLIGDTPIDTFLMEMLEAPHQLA
Method in brief: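 Readout: EC50, nM, from receptor transactivation; efficacy = % of maximum vs standard cyclopropyl penta-2,4-dienoic acid retinoid. RXR data from holoreceptor format; RAR data from chimeric receptor format.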

[4] = molecular target: T4, RARα (Homo sapiens, UniProt P10276); assay: chimeric receptor transactivation assay, RARα; format: cell-based; settings: for EC50: chimeric receptor transactivation, read-out: RAR Trans. EC50 α; for Emax: percentage compared to the standard compound, read-out: RAR Trans. efficacy (number in parentheses) α
T4 sequence (P10276 183-417 limits assumed): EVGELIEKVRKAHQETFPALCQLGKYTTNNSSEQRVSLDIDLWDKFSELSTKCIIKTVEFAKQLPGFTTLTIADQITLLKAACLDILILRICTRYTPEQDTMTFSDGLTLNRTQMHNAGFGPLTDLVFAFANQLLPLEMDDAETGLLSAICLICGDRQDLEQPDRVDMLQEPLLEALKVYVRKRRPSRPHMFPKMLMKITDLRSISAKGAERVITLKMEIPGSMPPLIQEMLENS
Text: as §1, §3, §4, §2

| Compound | Ki ([1]; read-out: RXR Bind Ki γ) | EC50 [2] | Emax [2] | EC50 [3] | RXR Trans. efficacy (number in parentheses) β [3] | Kd [1] | EC50 [4] | Emax [4] |
| --- | --- | --- | --- | --- | --- | --- | --- | --- |
| CCOc1cc2c(cc1\C(C)=C(F)/C=C/C(C)=C/C(=O)O)C(C(C)C)=CCC2(C)C [Compound A-79, (2E,4E,6E)-6-Fluoro-3-(4,4-dimethylethoxy-1-isopropyl-3,4-dihydronaphthalen-7-yl)-3-methyl-2.4,6-octa-trienoic acid] | 88 nM | 829 nM | 62% | 4 nM | 60% | – | – | – |
| CCOc1c(\C(CC)=C(F)/C=C/C(C)=C/C(=O)O)cc2c(c1Br)C(C)(C)CC=C2C(C)C [Compound A-170, (2E,4E,6E)-7-(4-Bromo-3-ethoxy-8-isopropyl-5,5-dimethyl-5,6-dihydro-naphthalen-2-yl)-6-fluoro-3-methyl-nona-2,4,6-trienoic acid] | – | 3.5 nM | 8% | 1 nM | 59% | 29 nM | – | – |
| CCOc1c(\C(=C(F)/C=C/C(C)=C/C(=O)O)C(C)C)cc2c(c1Br)C(C)(C)CC=C2C(C)C [Compound A-171, (2E,4E,6E)-7-(4-Bromo-3-ethoxy-8-isopropyl-5,5-dimethyl-5,6-dihydro-naphthalen-2-yl)-6-fluoro-3.8-dimethyl-nona-2.4,6-trienoic acid] | – | 2 nM | 12% | 3 nM | 30% | 112 nM | 3 nM | 13% |
| CCOc1c(\C(C)=C(F)/C=C/C(C)=C/C(=O)O)cc2c(c1Br)C(C)(C)CC=C2C(C)(C)C [Compound A-174, (2E,4E,6E)-7-(4-Bromo-8-tert-butyl-3-ethoxy-5,5-dimethyl-5,6-dihydro-naphthalen-2-yl)-6-fluoro-3-methyl-octa-2,4,6-trienoic acid] | – | – | – | 7 nM | 25% | 34 nM | – | – |
| CCOc1c(\C(CC)=C(F)/C=C/C(C)=C/C(=O)O)cc2c(c1Br)C(C)(C)CC=C2C(C)CC (centres unmarked) [Compound A-176, (2E,4E,6E)-7-(4-Bromo-8-sec-butyl-3-ethoxy-5,5-methyl-5,6-dihydro-naphthalen-2-yl)-6-fluoro-3-methyl-nona-2,4,6-trienoic acid] | – | 14 nM | 19% | 4 nM | 58% | 122 nM | – | – |
| CCOc1c(\C(CC)=C(F)/C=C/C(C)=C/C(=O)O)cc2c(c1Cl)C(C)(C)CC=C2C(C)C [Compound A-178, (2E,4E,6E)-7-(4-Chloro-3-ethoxy-8-isopropyl-5,5-dimethyl-5,6-dihydronaphthalen-2-yl)-6-fluoro-3-methyl-nona-2,4,6-trienoic acid] | – | 9 nM | 26% | 0.5 nM | 53% | 61 nM | 1 nM | 8% |
